Reference: ChEMBL document CHEMBL4118151, “Highly potent activity of isopulegol-derived substituted octahydro-2H-chromen-4-ols against influenza A and B viruses” (Bioorg Med Chem Lett, 2018)

Tests used:
[1] = Selectivity index, ratio of CC50 for MDCK cells to IC50 for amantadine/rimantadine-resistant Influenza A virus (A/Puerto Rico/8/34(H1N1)); type: toxicity; details: dog, read-out: Ratio CC50/IC50
Influenza A virus [2] = assay: Antiviral activity against amantadine/rimantadine-resistant Influenza A virus (A/Puerto Rico/8/34(H1N1)) infected in MDCK cells assessed as inhibition of viral replication after 48 hrs by hemagglutination test; type: functional, organism-based; details: A/Puerto Rico/8/1934(H1N1)
[3] = Selectivity index, ratio of CC50 for MDCK cells to IC50 for amantadine/rimantadine-resistant Influenza A virus (A/California/07/09(H1N1)); type: toxicity; details: dog, read-out: Ratio CC50/IC50
[4] = Selectivity index, ratio of CC50 for MDCK cells to IC50 for amantadine/rimantadine-resistant Influenza B virus (B/Florida/4/06/Yamagata-like); type: toxicity; details: dog, read-out: Ratio CC50/IC50
Influenza A virus [5] = assay: Antiviral activity against amantadine/rimantadine-resistant Influenza A virus (A/California/07/09(H1N1)) infected in MDCK cells assessed as inhibition of viral replication after 48 hrs by hemagglutination test; type: functional, organism-based; details: A/California/07/2009(H1N1)
Influenza B virus = assay: Antiviral activity against amantadine/rimantadine-resistant Influenza B virus (B/Florida/4/06(Yamagata-like)) infected in MDCK cells assessed as inhibition of viral replication after 48 hrs by hemagglutination test; type: functional, organism-based, Influenza B virus (B/Florida/4/2006)
[6] = Selectivity index, ratio of CC50 for MDCK cells to IC50 for osaltamivir-resistant Influenza A virus (A/Vladivostok/02/09(H1N1)); type: toxicity; details: dog, read-out: Ratio CC50/IC50
Influenza A virus [7] = assay: Antiviral activity against osaltamivir-resistant Influenza A virus (A/Vladivostok/02/09(H1N1)) infected in MDCK cells assessed as inhibition of viral replication after 48 hrs by hemagglutination test; type: functional, organism-based

SMILES	selectivity ratio [1]	IC50 (Influenza A virus [2])	further results
C[C@@H]1CC[C@@H]2[C@H](C1)OC1(CCCC1)C[C@@]2(C)O	96	8.4 µM	–
C[C@@H]1CC[C@@H]2[C@H](C1)OC(C)(C)CC2(C)O (some centres undefined)	4	17 µM	–
C[C@@H]1CC[C@@H]2[C@@H](C1)O[C@@H](C1CCCCC1)C[C@@]2(C)O	2	12.4 µM	–
C[C@@H]1CC[C@@H]2[C@H](C1)OC1(CCCCCC1)C[C@@]2(C)O	3	82.7 µM	–
CCCC1(CCC)C[C@@](C)(O)[C@@H]2CC[C@@H](C)C[C@@H]2O1	3	45.5 µM	–
C[C@@H]1CC[C@@H]2[C@H](C1)OC1(CCCCCCC1)C[C@@]2(C)O	–	> 118 µM	–
C[C@@H]1CC[C@@H]2[C@H](C1)OC1(CCCCC1)C[C@@]2(C)O	34	18.3 µM	–
C[C@@H]1CC[C@@H]2[C@@H](C1)OC(C)(C)C[C@]2(C)O	12	70.8 µM	–
CCC[C@H]1C[C@@](C)(O)[C@@H]2CC[C@@H](C)C[C@H]2O1	–	> 1330 µM	–
CCC1(CC)C[C@@](C)(O)[C@@H]2CC[C@@H](C)C[C@@H]2O1	10	19.6 µM	–
C[C@@H]1CC[C@@H]2[C@@H](C1)OC(C)(C)C[C@@]2(C)O	–	7.5 µM	selectivity ratio [3]: 1570; selectivity ratio [4]: 83; IC50 (Influenza A virus [5]): 0.9 µM; IC50 (Influenza B virus): 17 µM; selectivity ratio [6]: 1; IC50 (Influenza A virus [7]): > 1420 µM
CC(C)=O [ACETONE]	–	7.5 µM	–
NC(=O)c1ncn([C@@H]2O[C@H](CO)[C@@H](O)[C@H]2O)n1 [RIBAVIRIN]	–	44 µM	–
CC(N)C12CC3CC(CC(C3)C1)C2 (centres undefined) [RIMANTADINE]	4	72 µM	–
